Laboratory results reported in PubChem BioAssay AID2060328 (Molecular Pharmacology Branch, DTP, NCI, 2025).

System: MDA-MB-231 multicell spheroids, viability (%T/C)
Experiment: Anticancer human tumor MDA-MB-231 cell line growth inhibition [IpAb];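 further: viability read after seven days of drug exposure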;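 on viability, T/C: 100% = DMSO vehicle control viability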
Conditions: for IC50: curve of first compound; for viability, T/C: stronger effect = lower value
Text: Combinatorial screen of targeted agents with ipatasertib and abemaciclib in multi-cell type tumor spheroids
A high-throughput screen of multi-cell type tumor spheroids was designed to identify active combinations of targeted small molecules and ipatasertib or abemaciclib. Complex spheroids include a stromal component modeled by human endothelial cells (HUVEC) and fibroblasts modeled by human mesenchymal stem cells (MSCs). The concentration ranges selected for each drug and investigational agent were based upon clinically achievable concentrations if the clinical Cmax of the agent was known.
Compounds. The drugs and investigational agents: ipatasertib (NSC767898), abemaciclib(NSC768073), selumetinib (NSC741078), trametinib (758246), adavosertib (NSC754352), everolimus (NSC733504), sapanisertib (NSC764658), vemurafenib (NSC761431), venetoclax (NSC766270), copanlisib (NSC809693), apelisib (NSC765974), palbociblib (NSC758247), vemurafenib (NSC761431), dabrafenib (NSC764134), ravoxertinib (NSC781343), BMS-387032 (NSC767048), sotorasib (NSC818433), talazoparib (NSC767125) and afursertib (NSC778305), were obtained from the National Cancer Institute (NCI) Developmental Therapeutics Program Chemical Repository. The FDA-approved anticancer drug set is available from the NCI Developmental Therapeutics Program. […] The stock solutions were prepared in dimethyl sulfoxide (DMSO, Sigma-Aldrich, St. Louis, MO, cat. D2650) at 800-fold the tested concentration and stored at -70 degrees C prior to their use. All drugs and investigational agents were tested over a range starting from a high concentration at or near the clinical Cmax and decreasing in half-log increments. If the clinical Cmax for an agent had not been determined, the highest concentration tested was 10 microM.
NCI60 Cell Culture. NCI60 cell lines were obtained from the NCI Developmental Therapeutics Program Tumor Repository. For each lot of cells, the Repository performed Applied Biosystems AmpFLSTR Identifiler testing with PCR amplification to confirm consistency with the published Identifier STR profile for each cell line. Cells were kept in continuous culture for no more than 20 passages. The optimal seeding densities for each of the cell lines at each time point assessed were determined prior to performing the concentration response studies. Briefly, the NCI60 human tumor lines were grown as monolayers in RPMI 1640 medium supplemented with 10% FBS and 2 mmol/L L-glutamine.
An additional 9 lines were from the NCI60 cell line panel including MDA-MB-231 breast carcinoma, MDA-MB-468 breast carcinoma, MCF7 breast carcinoma, Hs578T breast carcinoma, MALME-3M melanoma, SK-MEL-2 melanoma, SK-OV-3 ovarian carcinoma, DU-145 prostate carcinoma, PC-3 prostate carcinoma, all cell lines along with major genetic alterations are listed on Table 2. Pooled donor human umbilical vein endothelial cells (HUVEC, Lonza, cat. CC-2519) and human mesenchymal stem cells (hMSC, Lonza, cat. PT-2501) were purchased from Lonza (Walkersville, MD).
PDMR cell lines were grown in complete medium (DC medium): Dulbecco's modified Eagle's medium (DMEM)/F12 supplemented with 5% fetal bovine serum (FBS), 2 mM L-glutamine, 100 U/mL penicillin and 100 µg/ml streptomycin, 0.4 µg/ml hydrocortisone, 10 ng/ml epidermal growth factor (EGF) recombinant human protein, 24 µg/mL adenine, and 0.1 mg/mL primocin. During culture from frozen stock vials, PDMR cells were cultured in the same medium containing 10 µM Y-27632 (see Table 3). The PDCs were cultured in complete DMEM/F12 media without 10 microM Y-27632 dihydrochloride for at least two passages prior to the screen. The pooled donor HUVEC and hMSC were cultured in endothelial cell growth medium 2 (PromoCell, Heidelberg, Germany, cat. C-22011) and mesenchymal stem cell growth medium 2 (PromoCell, cat. C-28009), respectively. For all experiments, HUVEC and hMSC were used at passages </=5.
[…]

[1] = second compound 0.1 µM, first compound 0.0316 µM
[2] = second compound 0.1 µM, first compound 0.1 µM
[3] = second compound 0.1 µM, first compound 0.316 µM
[4] = second compound 0.1 µM, first compound 1 µM
[5] = second compound 0.1 µM, first compound 3.16 µM
[6] = second compound 0.1 µM, first compound 10 µM
[7] = second compound 0.316 µM, first compound 0.0316 µM
[8] = second compound 0.316 µM, first compound 0.1 µM
[9] = second compound 0.316 µM, first compound 0.316 µM
[10] = second compound 0.316 µM, first compound 1 µM
[11] = second compound 0.316 µM, first compound 3.16 µM
[12] = second compound 0.316 µM, first compound 10 µM
[13] = second compound 1 µM, first compound 0.0316 µM
[14] = second compound 1 µM, first compound 0.1 µM
[15] = second compound 1 µM, first compound 0.316 µM
[16] = second compound 1 µM, first compound 1 µM
[17] = second compound 1 µM, first compound 3.16 µM
[18] = second compound 1 µM, first compound 10 µM
[19] = second compound 3.16 µM, first compound 0.0316 µM
[20] = second compound 3.16 µM, first compound 0.1 µM
[21] = second compound 3.16 µM, first compound 0.316 µM
[22] = second compound 3.16 µM, first compound 1 µM
[23] = second compound 3.16 µM, first compound 3.16 µM
[24] = second compound 3.16 µM, first compound 10 µM
[25] = second compound 10 µM, first compound 0.0316 µM
[26] = second compound 10 µM, first compound 0.1 µM
[27] = second compound 10 µM, first compound 0.316 µM
[28] = second compound 10 µM, first compound 1 µM
[29] = second compound 10 µM, first compound 3.16 µM
[30] = second compound 10 µM, first compound 10 µM

Row | SMILES | IC50 (second compound 0.1 µM) [nM] | IC50 (second compound 0.316 µM) [nM] | IC50 (second compound 1 µM) [nM] | IC50 (second compound 3.16 µM) [nM] | IC50 (second compound 10 µM) [nM] | viability, T/C [1] [%] | viability, T/C [2] [%] | viability, T/C [3] [%] | viability, T/C [4] [%] | viability, T/C [5] [%] | viability, T/C [6] [%] | viability, T/C [7] [%] | viability, T/C [8] [%] | viability, T/C [9] [%] | viability, T/C [13] [%] | viability, T/C [14] [%] | viability, T/C [19] [%] | viability, T/C [20] [%] | viability, T/C [25] [%] | viability, T/C [26] [%] | further results
1 | C=CCn1c(=O)c2cnc(Nc3ccc(N4CCN(C)CC4)cc3)nc2n1-c1cccc(C(C)(C)O)n1 + CC(C)NCC(C(=O)N1CCN(c2ncnc3c2C(C)CC3O)CC1)c1ccc(Cl)cc1 | 219 | 188 | 170 | 91.4 | < 31.6 | 93 | 86.6 | 32.9 | 17.8 | 16.4 | 20.5 | 92.5 | 74.4 | 30.1 | 76.7 | 68.4 | 60.6 | 48.8 | 44.6 | 32.5 | viability, T/C [10]: 17.3%; viability, T/C [11]: 15.3%; viability, T/C [12]: 19.6%; viability, T/C [15]: 28.3%; viability, T/C [16]: 16.7%; viability, T/C [17]: 15.5%; viability, T/C [18]: 17.4%; viability, T/C [21]: 26.2%; viability, T/C [22]: 15.1%; viability, T/C [23]: 14.6%; viability, T/C [24]: 16.9%; viability, T/C [27]: 21.2%; viability, T/C [28]: 15.3%; viability, T/C [29]: 15%; viability, T/C [30]: 16.6%
2 | CC(C)n1nc(-c2ccc3oc(N)nc3c2)c2c(N)ncnc21 + CC(C)NCC(C(=O)N1CCN(c2ncnc3c2C(C)CC3O)CC1)c1ccc(Cl)cc1 | 15.1 | 5.64 | 2.25 | 0.58 | < 0.316 | 42.5 | 40.5 |  |  |  |  | 38.6 | 35.4 |  | 31.7 | 29.8 | 26.1 | 23.3 | 15.2 | 14.6 | viability, T/C (second compound 0.1 µM, first compound 0.000316 µM): 90.9%; viability, T/C (second compound 0.1 µM, first compound 0.001 µM): 84%; viability, T/C (second compound 0.1 µM, first compound 0.00316 µM): 68.6%; viability, T/C (second compound 0.1 µM, first compound 0.01 µM): 54.5%; viability, T/C (second compound 0.316 µM, first compound 0.000316 µM): 86.8%; viability, T/C (second compound 0.316 µM, first compound 0.001 µM): 69.8%; viability, T/C (second compound 0.316 µM, first compound 0.00316 µM): 56.4%; viability, T/C (second compound 0.316 µM, first compound 0.01 µM): 43.8%; viability, T/C (second compound 1 µM, first compound 0.000316 µM): 67.4%; viability, T/C (second compound 1 µM, first compound 0.001 µM): 59%; viability, T/C (second compound 1 µM, first compound 0.00316 µM): 46.1%; viability, T/C (second compound 1 µM, first compound 0.01 µM): 36.5%; viability, T/C (second compound 3.16 µM, first compound 0.000316 µM): 53.3%; viability, T/C (second compound 3.16 µM, first compound 0.001 µM): 47%; viability, T/C (second compound 3.16 µM, first compound 0.00316 µM): 36.9%; viability, T/C (second compound 3.16 µM, first compound 0.01 µM): 28.3%; viability, T/C (second compound 10 µM, first compound 0.000316 µM): 38.3%; viability, T/C (second compound 10 µM, first compound 0.001 µM): 34.2%; viability, T/C (second compound 10 µM, first compound 0.00316 µM): 27.1%; viability, T/C (second compound 10 µM, first compound 0.01 µM): 18.1%
3 | CC1(C)CCC(CN2CCN(c3ccc(C(=O)NS(=O)(=O)c4ccc(NCC5CCOCC5)c([N+](=O)[O-])c4)c(Oc4cnc5[nH]ccc5c4)c3)CC2)=C(c2ccc(Cl)cc2)C1 + CC(C)NCC(C(=O)N1CCN(c2ncnc3c2C(C)CC3O)CC1)c1ccc(Cl)cc1 | 5990 | 5380 | 4750 | 3680 | < 31.6 | 99 | 96.8 | 103 | 95.9 | 96.9 | 12.4 | 86.2 | 88.3 | 93.7 | 75.9 | 79.4 | 60.8 | 57.2 | 39.8 | 43 | viability, T/C [10]: 94.5%; viability, T/C [11]: 86.1%; viability, T/C [12]: 7.75%; viability, T/C [15]: 75.4%; viability, T/C [16]: 77.7%; viability, T/C [17]: 71.2%; viability, T/C [18]: 10.9%; viability, T/C [21]: 59.4%; viability, T/C [22]: 60.1%; viability, T/C [23]: 56.5%; viability, T/C [24]: 7.09%; viability, T/C [27]: 40.5%; viability, T/C [28]: 39.4%; viability, T/C [29]: 36.4%; viability, T/C [30]: 4.22%
4 | CCCS(=O)(=O)Nc1ccc(F)c(C(=O)c2c[nH]c3ncc(-c4ccc(Cl)cc4)cc23)c1F + CC(C)NCC(C(=O)N1CCN(c2ncnc3c2C(C)CC3O)CC1)c1ccc(Cl)cc1 | 8310 | 6040 | 5310 | 1760 | < 31.6 | 106 | 106 | 104 | 97.2 | 75.4 | 45.1 | 98.1 | 95.9 | 92.2 | 80.1 | 84.8 | 59.3 | 68.2 | 45.4 | 48.2 | viability, T/C [10]: 87.3%; viability, T/C [11]: 61.2%; viability, T/C [12]: 41.1%; viability, T/C [15]: 79.8%; viability, T/C [16]: 71.3%; viability, T/C [17]: 60.1%; viability, T/C [18]: 38.3%; viability, T/C [21]: 61.7%; viability, T/C [22]: 56.7%; viability, T/C [23]: 42.9%; viability, T/C [24]: 30.9%; viability, T/C [27]: 44.2%; viability, T/C [28]: 36.6%; viability, T/C [29]: 35%; viability, T/C [30]: 27.6%
